Measured values published in patent US20070061084A1, “Method, system, and knowledge repository for identifying a secondary metabolite from a microorganism” (Ecopia BioSciences, Inc., priority 2002, published 2007).
≈ marks a conversion by molar mass, not a printed value. One block for each molecule: values may come before it.

Legend:
[1] = system: Candida indicators; experiment: Bioactivity screen of HPLC/MS fractions of organism 100 extracts; type: cell-based; conditions: compound of mass 1113 Da from organism 100 extracts
Procedure: An extract containing the putative polyene was obtained from organism 100 using a metabolomic approach to identify conditions under which the product of locus 100C was expressed. This approach obtains analytical measurement of all low molecular weight metabolites in a given organism at a specific time when grown under specific culture conditions. Organism 100 was grown in 48 different media, namely AA, AB, AC, BA, CA, CB, CI, DA, DY, DZ, EA, ES, ET, FA, GA, IB, JA, KA, KE, LA, MA, MC, MU, NA, NE, NF, NG, OA, PA, PB, QB, RA, RB, RC, RM, SF, SP, TA, VA, VB, WA, WS, XA, YA, ZA. Metabolites were extracted from whole cell cultures by adding of an equal volume of methanol. After removal of solid debris, the extract was concentrated and injected into an HPLC/MS system in which the metabolites were analyzed to obtain UV and mass data and purified fractions are collected in 96-well plates and assayed for multiple activities including antibiotic activity against gram-positive and gram-negative bacteria, and fungi.
Finally, the extracts generated by growth of organism 100 under each of the 48 media were analyzed for metabolites having physical, chemical and biological characteristics of polyenes. […]

[2] = system: Saccharomyces cerevisiae FHCRC 50514; experiment: Disk diffusion assay, antifungal bioactivity; type: cell-based; conditions: 37° C., 24 hours
Procedure: Antifungal bioactivity of Compound 1 (0506), in comparison to Amphotericin B, against Saccharomyces cerevisiae FHCRC 50514 was determined using a disk diffusion assay. Such an assay is commonly used to reveal activity of antifungal drugs against fungi (Wong G K, Griffith S, Kojima I and Demain A L, J. Antibiotics, 51(5): 487-491, 1998).
Inoculum (100 μL) was added to 100 mL of RPMI agar (kept at 55° C.) to give a final suspension of about 1×10^5 CFU/mL, and poured into 150 mm Petri dishes. Plates were used immediately upon setting of the agar.
Compound 1 (0506) was diluted in DMSO to a concentration of 3.2 mg/mL. A 20 μL sample (64 μg) was deposited on the agar surface of prepared plates. Amphotericin solution in DMSO (5 mg/mL; 10 μL; 50 μg) was also deposited, in a separate location, on the agar surface. A negative control (10 μL of stock solution) was also deposited in a separate location on the surface of the agar. The plates were incubated at 37° C. for 24 hours.

[3] = target: T1, Adenosine A3 Receptor (Homo sapiens, UniProt P0DMS8); conditions: radioligand, historical value; cited from earlier work
T1 sequence (P0DMS8 1-318): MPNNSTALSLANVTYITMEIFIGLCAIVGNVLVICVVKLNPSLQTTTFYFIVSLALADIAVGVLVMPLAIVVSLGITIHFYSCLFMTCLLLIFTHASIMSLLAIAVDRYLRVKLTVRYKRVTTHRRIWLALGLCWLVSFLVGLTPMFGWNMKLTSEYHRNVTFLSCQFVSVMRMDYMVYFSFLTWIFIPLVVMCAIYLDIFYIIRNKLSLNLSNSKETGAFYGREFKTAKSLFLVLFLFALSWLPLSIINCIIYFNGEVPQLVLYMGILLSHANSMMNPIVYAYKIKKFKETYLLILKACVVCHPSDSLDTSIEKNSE

[4] = target: T2, Angiotensin Converting Enzyme (Oryctolagus cuniculus, UniProt P12822); experiment: ACE enzyme inhibition assay (spectrometric quantitation of FAPGG); type: biochemical; conditions: 10 μM in 1% DMSO; rabbit lung enzyme
T2 construct: ACE: Source: rabbit lung; from tissue; host or cells: rabbit lung
T2 sequence (P12822 34-1310): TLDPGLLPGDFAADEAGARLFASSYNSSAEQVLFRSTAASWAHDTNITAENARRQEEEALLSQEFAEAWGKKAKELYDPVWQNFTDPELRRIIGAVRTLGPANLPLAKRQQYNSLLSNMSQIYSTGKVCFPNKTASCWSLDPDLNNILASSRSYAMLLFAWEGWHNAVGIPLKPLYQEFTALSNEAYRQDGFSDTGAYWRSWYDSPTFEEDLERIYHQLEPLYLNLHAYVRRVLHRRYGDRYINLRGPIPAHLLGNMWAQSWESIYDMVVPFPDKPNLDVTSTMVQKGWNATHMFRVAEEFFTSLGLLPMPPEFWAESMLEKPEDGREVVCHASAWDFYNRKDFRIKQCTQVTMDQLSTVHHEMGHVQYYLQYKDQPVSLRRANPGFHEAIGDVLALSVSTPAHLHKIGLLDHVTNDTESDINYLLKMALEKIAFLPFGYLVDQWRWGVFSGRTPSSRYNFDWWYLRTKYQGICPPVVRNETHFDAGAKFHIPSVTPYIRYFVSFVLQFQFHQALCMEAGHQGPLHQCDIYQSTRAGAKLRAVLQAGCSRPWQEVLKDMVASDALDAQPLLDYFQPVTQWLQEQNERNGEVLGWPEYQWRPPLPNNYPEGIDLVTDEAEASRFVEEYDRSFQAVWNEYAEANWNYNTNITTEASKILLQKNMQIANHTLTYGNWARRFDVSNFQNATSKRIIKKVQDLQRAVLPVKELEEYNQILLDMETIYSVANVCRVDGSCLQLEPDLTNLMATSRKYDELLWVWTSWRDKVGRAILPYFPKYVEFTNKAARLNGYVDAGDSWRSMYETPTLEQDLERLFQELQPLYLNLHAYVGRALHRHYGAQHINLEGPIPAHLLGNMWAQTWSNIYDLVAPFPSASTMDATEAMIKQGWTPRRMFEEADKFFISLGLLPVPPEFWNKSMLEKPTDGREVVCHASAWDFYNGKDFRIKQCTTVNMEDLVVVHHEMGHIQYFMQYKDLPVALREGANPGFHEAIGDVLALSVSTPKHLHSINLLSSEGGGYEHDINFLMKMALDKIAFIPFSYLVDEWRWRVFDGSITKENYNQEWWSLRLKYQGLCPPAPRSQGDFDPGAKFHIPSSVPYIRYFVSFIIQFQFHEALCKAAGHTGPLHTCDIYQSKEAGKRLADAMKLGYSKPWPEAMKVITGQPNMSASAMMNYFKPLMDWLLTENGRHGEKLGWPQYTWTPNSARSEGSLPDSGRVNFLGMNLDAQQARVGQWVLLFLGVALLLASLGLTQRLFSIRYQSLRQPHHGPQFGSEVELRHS

[5] = target: T3, Protein Serine/Threonine Kinase MEK1 (Oryctolagus cuniculus, UniProt P29678); experiment: MEK1 enzyme inhibition assay (Elisa quantitation of MBP-P); type: biochemical; conditions: 10 μM in 1% DMSO; rabbit recombinant E. coli
T3 construct: made in house; host or cells: E. coli

[6] = target: T1, Adenosine A3 Receptor; experiment: Adenosine A3 radioligand binding assay; set-up: expressed in transfected cells; host or cells: CHO-K1 cells; conditions: 10 μM in 1% DMSO; human recombinant CHO-K1 cells; negative value = stimulation of binding
[7] = system: Saccharomyces cerevisiae Δpdr1/pdr3/erg6 (FHCRC 50514); experiment: Broth dilution antifungal susceptibility (NCCLS M27A), MIC; conditions: 48 h, read-out: minimum inhibitory concentration (MIC)

T3 sequence (P29678 whole entry): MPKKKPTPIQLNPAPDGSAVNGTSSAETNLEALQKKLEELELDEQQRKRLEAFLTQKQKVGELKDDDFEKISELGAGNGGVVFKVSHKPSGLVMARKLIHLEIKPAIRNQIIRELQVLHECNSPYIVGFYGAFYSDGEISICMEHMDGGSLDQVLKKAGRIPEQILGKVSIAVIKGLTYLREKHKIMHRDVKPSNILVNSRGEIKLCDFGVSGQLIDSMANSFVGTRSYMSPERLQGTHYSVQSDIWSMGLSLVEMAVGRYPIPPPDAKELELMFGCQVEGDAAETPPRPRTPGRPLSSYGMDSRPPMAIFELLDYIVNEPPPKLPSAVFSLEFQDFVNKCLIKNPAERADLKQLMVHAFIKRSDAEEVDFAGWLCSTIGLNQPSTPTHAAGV

Compound: CC1/C=C/C=C/C=C/C=C/C=C/C=C/C=C/C(OC2O[C@H](C)C(O)[C@H](N)C2O)CC2OC(O)(CC(O)CC(O)CC(O)CC(O)C[C@H](O)CC(O)CC(=O)OC1C(C)CCC(O)CC(=O)c1ccc(N)cc1)CC(O)C2C(=O)O (stereo partly drawn) [ayfactin]
antifungal activity [1]: antifungal activity

Compound: C[C@@H]1[C@H](O)[C@@H](C)/C=C/C=C/C=C/C=C/C=C/C=C/C=C/[C@H](O[C@@H]2O[C@H](C)[C@@H](O)[C@H](N)[C@@H]2O)C[C@@H]2O[C@](O)(C[C@@H](O)C[C@@H](O)[C@H](O)CC[C@@H](O)C[C@@H](O)CC(=O)O[C@H]1C)C[C@H](O)[C@H]2C(=O)O [Amphotericin B, reference compound]
zone of inhibition (diameter) ([2]; at 50 μg deposited on agar): 23.9 mm

Compound: COc1cc2nc(N3CCN(C(=O)c4ccco4)CC3)nc(N)c2cc1OC [[H3] Prazosin, Prazosin]
Kd [3]: 290 pM

inhibition at 10 µM [4]: 50% | inhibition at 10 µM [5]: 63% | inhibition at 10 µM [6]: -101%
Compound: CNC(CCCN(O)C(=O)C(CO)NC(=O)C(N)CCCN(C=O)C(=N)N)C(=O)NC(CO)C(=O)NC(CO)C(=O)NC(CCC(N)=O)C(=O)O (stereo not drawn) [Compound 1 (0506)]
zone of inhibition (diameter) ([2]; at 64 μg deposited on agar): 36.4 mm

Compound: C/C=C(\C)C(O)C(C)/C=C/C=C(\C)CCC(O)CC1=C(C)C(=O)C(C)(O)O1 (stereo not drawn) [Compound 2]
MIC [7]: 64 µg/mL (≈ 169 µM)

Compound: OC(Cn1cncn1)(Cn1cncn1)c1ccc(F)cc1F [Fluconazole, reference compound]
MIC [7]: 0.25 to 0.5 µg/mL (≈ 0.816 to 1.63 µM)
